Read-outs that look alike come from different tables or passages of the source.
Tests used:
[1] = test system: human keratinocytes (HaCaT); experiment: Effect on proliferation of human keratinocytes, CCK-8, 48 h (Example 5); format: cell-based; conditions: 48 hours of treatment
Procedure: In this example, the glaucocalyxin A derivatives of the present application, or pharmaceutically acceptable salts thereof, were examined for the effect on the proliferation of human keratinocytes. In this example, the glaucocalyxin A derivatives as shown in Table 1 were examined by using the following procedure. A cell suspension was prepared and inoculated into three 96-well plates at 8000 cells in a volume of 150 μl per well, which were then cultured overnight in an incubator at 37° C., 5% CO2. On the next day, 50 μl of test compound solution at different concentrations was added to each well. Triplicate wells were set up for each concentration. A vehicle control group (without compound), a cell control group (without compound and vehicle), and a blank medium control group (without cells, a well for null adjustment) were also set up, and cultured for an additional 48 hours. CCK-8 staining working solution was added at 110 μL per well, and cultured for additional 1-4 h. At the end of the culture, the absorbances were measured at 450 nm (OD450 nm) on a Bio-Tek enzyme-linked immunosorbent assay. The results were expressed as the mean OD450 nm value of triplicates±standard deviation (x±sd). The Origin 7.0 was used for plotting and analysis. A fitting curve was obtained by plotting the OD value of each group against the logarithmic concentration of the test compound, and then the IC50 value was determined.

HaCaT keratinocytes = experiment: Time- and dose-dependent inhibition of proliferation of human keratinocytes, CCK-8 (Example 6); format: cell-based
Procedure: In this example, the glaucocalyxin A derivatives of the present application and pharmaceutically acceptable salts thereof were examined for the relationship between the inhibitory rate thereof on the proliferation of human keratinocytes and its concentration. Compound 23 as shown in Table 1 was used as an exemplary compound to be examined by using the following procedure.
A cell suspension was prepared and inoculated into three 96-well plates at 8000 cells in a volume of 150 μl per well, which were then cultured overnight in an incubator at 37° C., 5% CO2. On the next day, 50 μl of test compound solution at different concentrations was added to each well. Triplicate wells were set up for each concentration. A vehicle control group (without compound), a cell control group (without compound and without vehicle), and a blank medium control group (without cells, a well for null adjustment) were also set up, and cultured for additional 24, 48, and 72 hours. CCK-8 staining working solution was added at 110 μL per well, and cultured for additional 1-4 h. At the end of the culture, the absorbances were measured at 450 nm (OD450 nm) on a Bio-Tek enzyme-linked immunosorbent assay. The results were expressed as the mean OD450 nm value of the triplicates±standard deviation (x±sd). Prism Graph was used for plotting and analysis. The cell inhibitory rate of each group was calculated according to the mean value of the treatment group with each compound at each concentration and the mean value of the vehicle control group, that is, the cell inhibitory rate (%)=[1−(the mean value of the treatment group−the blank control group)/(the mean value of the vehicle control group−the blank control group)]×100%. A fitting curve was obtained by plotting the cell inhibitory rate of each group against the logarithmic concentration (Log C) of the test compound, and then the IC50 value was determined.

[2] = test system: xylene-induced auricular swelling in mice; experiment: Xylene-induced auricular swelling in mice (Example 7); format: in vivo, mouse; conditions: 7 consecutive days, xylene on 8th day
Procedure: In this example, the glaucocalyxin A derivatives and pharmaceutically acceptable salts thereof were detected for the inhibitory effect thereof on xylene-induced auricular swelling in mice. Compound 23 was used as an exemplary compound, and the detection method was as follows.
20 mice were randomly divided into 4 groups with 5 mice in each group, which were blank control group, 30 mg/kg dexamethasone treatment group, Compound 23 (10 mg/kg) treatment group, and Compound 23 (50 mg/kg) treatment group, respectively. 0.25-0.3 mL depending on the body weight was intragastrically administrated for 7 consecutive days, and an equal volume of 5% glucose injection was administrated to the blank group. On the 8th day, xylene was used to produce a model of auricular swelling in the right auricle of mice. 15 μl of xylene, an inflammatory inducer, was applied to both sides of the right auricle of each mouse, and the left auricle was left un-treated as a normal auricle control. After 1 hour, the mice were sacrificed by cervical dislocation. Both auricles were cut off along the auricle baseline, and then punched at the same position by using a puncher with a diameter of 8 mm to give auricle pieces, which were then weighed on an electronic analytical balance. The auricular swelling rate and the auricular swelling inhibitory rate were calculated according to the following formula. […]

## Br.C=C1C(=O)C23C(O)CC4C(C)(C)c5nc(N(C)C)sc5CC4(C)C2CCC1C3O (stereo not drawn) [Compound 23]
[1]
  IC50: 0.93 µM
HaCaT keratinocytes; 24 h, read-out: IC50 at 24 h
  IC50: 1.94 µM
HaCaT keratinocytes; 48 h, read-out: IC50 at 48 h
  IC50: 0.933 µM
HaCaT keratinocytes; 72 h, read-out: IC50 at 72 h
  IC50: 0.787 µM
[2]; 10 mg/kg intragastric
  inhibition of auricular swelling: effective
[2]; 50 mg/kg intragastric
  inhibition of auricular swelling: effective

— patent US11406622B2, “Glaucocalyxin a derivative, pharmaceutically acceptable salt thereof, or pharmaceutical composition thereof and uses thereof in preparation of drugs for treating psoriasis” (SUZHOU PHARMAVAN CO., LTD., priority 2017, dated 2022)
